Data from patent US7109360B1, “16-hydroxyestratrienes as selectively active estrogens” (priority 1999, dated 2006).

Experiments:
hERβ [1] = details: Table 1; estradiol = 100; cited from Kuiper et al. (1996); cited from earlier work
[2] = biological target: T1, human estrogen receptor α (Homo sapiens, UniProt P03372); assay: Binding to human estrogen receptor α produced by Baculovirus/SF-9 expression system; details: Table 2; human ERα from Baculovirus/SF-9, estradiol = 100
T1 construct: made in house; host or cells: Baculovirus/SF-9
T1 sequence (P03372 1-595): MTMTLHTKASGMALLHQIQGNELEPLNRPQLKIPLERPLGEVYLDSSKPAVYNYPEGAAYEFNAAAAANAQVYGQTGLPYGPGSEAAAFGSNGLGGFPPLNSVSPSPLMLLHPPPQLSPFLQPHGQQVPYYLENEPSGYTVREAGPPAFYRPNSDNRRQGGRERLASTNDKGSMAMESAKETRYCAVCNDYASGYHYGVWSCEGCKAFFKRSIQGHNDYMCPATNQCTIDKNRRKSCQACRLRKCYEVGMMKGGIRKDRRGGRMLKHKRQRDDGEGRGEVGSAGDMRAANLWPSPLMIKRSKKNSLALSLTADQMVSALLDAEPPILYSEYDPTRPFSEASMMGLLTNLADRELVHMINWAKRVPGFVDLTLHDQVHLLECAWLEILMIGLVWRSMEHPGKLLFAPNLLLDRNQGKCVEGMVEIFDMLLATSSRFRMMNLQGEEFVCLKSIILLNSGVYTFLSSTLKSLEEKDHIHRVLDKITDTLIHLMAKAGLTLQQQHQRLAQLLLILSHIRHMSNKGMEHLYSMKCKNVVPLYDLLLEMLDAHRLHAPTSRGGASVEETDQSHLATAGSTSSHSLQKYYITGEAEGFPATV

[3] = biological target: T2, human estrogen receptor β (Homo sapiens, UniProt Q92731); assay: Binding to human estrogen receptor β produced by Baculovirus/SF-9 expression system; details: for hERβ RBA / ERβ/ERα: Table 2; for hERβ RBA: human ERβ from Baculovirus/SF-9, estradiol = 100; for ERβ/ERα: quotient RBA ERβ / RBA ERα
T2 construct: made in house; host or cells: Baculovirus/SF-9
T2 sequence (Q92731 whole entry): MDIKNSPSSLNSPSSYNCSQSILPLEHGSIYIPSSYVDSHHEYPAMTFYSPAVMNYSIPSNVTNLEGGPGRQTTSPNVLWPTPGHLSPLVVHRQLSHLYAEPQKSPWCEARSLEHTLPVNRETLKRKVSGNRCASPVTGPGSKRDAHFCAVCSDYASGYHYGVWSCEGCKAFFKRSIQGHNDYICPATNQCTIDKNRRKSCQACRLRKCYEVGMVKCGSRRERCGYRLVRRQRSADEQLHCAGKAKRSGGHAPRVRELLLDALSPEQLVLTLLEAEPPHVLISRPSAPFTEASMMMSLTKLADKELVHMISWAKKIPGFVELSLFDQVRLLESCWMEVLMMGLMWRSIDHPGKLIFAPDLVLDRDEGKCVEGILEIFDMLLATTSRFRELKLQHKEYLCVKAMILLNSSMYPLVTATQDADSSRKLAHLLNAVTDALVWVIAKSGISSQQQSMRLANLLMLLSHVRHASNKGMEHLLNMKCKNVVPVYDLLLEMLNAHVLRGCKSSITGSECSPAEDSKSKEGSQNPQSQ

[4] = test system: estrogen receptor preparations of rat prostates; assay: Competitive 3H-estradiol binding to estrogen receptor of rat prostate cytosol; details: for prost. ER/uterus ER: ratio RBA prostate-ER / RBA uterus-ER
hERβ [5] = assay: Relative binding affinity to hERβ, cited from Kuiper et al.; set-up: species or system human; details: Table 1; quotient of cited RBA hERβ / hERα
Source text: In this case, it is assumed that ERβ predominates in the rat prostates over ERα, and ERα predominates in rat uteri over ERβ.

[6] = biological target: T3, estrogen receptor preparations of rat uteri (Rattus norvegicus, UniProt P06211); assay: Competitive 3H-estradiol binding to estrogen receptor of rat uterus cytosol
T3 construct: The preparation of rat uterus cytosol, as well as the receptor test with the ER-containing cytosol; from tissue; host or cells: rat uterus cytosol
T3 sequence (P06211 1-600): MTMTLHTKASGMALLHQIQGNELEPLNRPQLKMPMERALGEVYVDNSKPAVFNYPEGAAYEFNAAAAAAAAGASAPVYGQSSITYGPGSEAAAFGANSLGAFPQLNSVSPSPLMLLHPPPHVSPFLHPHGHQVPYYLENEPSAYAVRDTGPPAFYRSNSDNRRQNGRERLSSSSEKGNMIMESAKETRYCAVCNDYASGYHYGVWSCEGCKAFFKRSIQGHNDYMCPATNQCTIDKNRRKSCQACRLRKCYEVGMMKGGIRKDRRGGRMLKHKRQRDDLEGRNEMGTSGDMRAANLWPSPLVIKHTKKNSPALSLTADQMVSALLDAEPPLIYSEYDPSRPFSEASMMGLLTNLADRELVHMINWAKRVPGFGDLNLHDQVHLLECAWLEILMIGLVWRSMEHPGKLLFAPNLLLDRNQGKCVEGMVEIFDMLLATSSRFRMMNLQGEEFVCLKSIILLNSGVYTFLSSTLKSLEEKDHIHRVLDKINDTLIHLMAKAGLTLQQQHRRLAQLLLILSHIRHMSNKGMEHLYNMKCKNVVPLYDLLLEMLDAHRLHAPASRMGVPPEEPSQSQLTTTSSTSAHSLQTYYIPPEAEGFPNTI

[7] = test system: uterus of ovariectomized female rats; assay: Bone studies: uterus stimulation (uterus weight) in ovariectomized rats; type: in vivo, rat; details: s.c. once daily for 28 days
Experimental: (§1) Three-month-old female rats are ovariectomized and treated once daily with the test compound immediately after the operation for 28 days. The administration is carried out subcutaneously in arachis oil/ethanol. The animals are sacrificed on the day after the last administration, and tibia as well as uteri are removed. The uteri are weighed, fixed and worked up for histological studies. The determination of bone density is carried out ex vivo on prepared long bones by means of pQCT (quantitative computer tomography). The measurements are made at a distance of 4–6 mm from the ball of the joint of the proximal tibia.
(§2) Estra-1,3,5(10)-triene-3,16α-diol reflects this in vivo in the greatly different amounts, which produce a 50% bone protection [3 μg/animal] or a 50% uterus stimulation [30 μg/animal], relative to the bone mass loss, which can be measured in ovariectomized, untreated female rats 28 days after the ovariectomy unlike in intact animals that are subjected to sham operations.

[8] = test system: trabecular bone density in ovariectomized female rats; assay: Bone studies: bone density of proximal tibia (pQCT) in ovariectomized rats; type: in vivo, rat; details: s.c. once daily for 28 days, relative to bone mass loss of untreated ovariectomized vs sham-operated animals
Experimental: as §1
The ovariectomy reduces the density of the trabecular bone in the measured area by about 400 mg of Ca^2+/cm^3 to about 300 mg of Ca^2+/cm^3. By treatment with a compound of general formula I according to this invention, the degradation of the bone density is prevented or inhibited. The bone density in the proximal tibia was measured.
as §2

[9] = Table 1, 3H-estradiol as ligand, estradiol = 100

SMILES | hERα RBA [2] | hERβ RBA [3] | ERβ/ERα [3] | Rat prost. ER (RBA) [4, 9] | Rat prost. ER (RBA) ([4]; Table 2, estradiol = 100) | prost. ER/uterus ER ([4]; Table 2) | Rat uterus ER (RBA) ([6]; Table 2, estradiol = 100) | further results
C[C@]12CC[C@H]3[C@@H](CC=C4C[C@@H](O)CC[C@@]43C)[C@@H]1CC[C@@H]2O [5-Androstenediol] | 1.7 | 10 | 6 | 5 | 5 | 50 | 0.1 | hERβ RBA (hERβ [1]): 17; prost. ER/uterus ER ([4]; Table 1): 50; ERβ/ERα (hERβ [5]): 3; Rat uterus ER (RBA) [6, 9]: 0.1
C[C@]12CC[C@@H]3c4ccc(O)cc4CC[C@H]3[C@@H]1C[C@@H](O)C2 [16α-Estradiol, estra-1,3,5(10)-triene-3,16α-diol] | – | – | – | – | – | – | – | 50% uterus stimulation [7]: 30 μg/animal; 50% bone protection [8]: 3 μg/animal; Receptor binding ERβ (RBA)/ERα (RBA) ([3]; Table 3): 6; Rat prost. ER (RBA) ([4]; Table 3): 50; Rat uterus ER (RBA) ([6]; Table 3): 9
C[C@]12CC[C@@H]3c4ccc(O)cc4CC[C@H]3[C@@H]1C[C@@H](O)C2=O [16α-hydroxyestrone] | – | – | – | – | – | – | – | binding to human estrogen receptor β relative to human estrogen receptor α [3]: three times better; RBA value on rat prostate estrogen receptor relative to RBA value on rat uterus estrogen receptor [4]: five times better
C[C@]12CC[C@@H]3c4ccc(O)cc4CC[C@H]3[C@@H]1CC[C@H]2O [17α-Estradiol] | – | – | – | 1.3 | – | – | – | –
C#C[C@@]1(O)C[C@@H]2CC[C@@H]3[C@H](CC[C@@]4(C)[C@H]3CC[C@@]4(O)C#C)[C@@]2(C)C1 [Anordiol] | 15 | 0.2 | 0.01 | – | <0.01 | <0.01 | 6.6 | –
O=c1oc2cc(O)ccc2c2oc3cc(O)ccc3c12 [Coumestrol] | – | 100 | – | – | – | – | – | –
C[C@]12CC[C@@H]3c4ccc(O)cc4CC[C@H]3[C@@]13CC[C@]2(O)[C@H](O)C3 [Cyclotriol] | 36 | 10 | 0.3 | – | 17 | 0.3 | 50 | –
C[C@]12CC[C@@H]3c4ccc(O)cc4CC[C@H]3[C@@H]1C[C@@H](O)[C@@H]2O [Estriol] | – | – | – | – | – | – | – | hERβ RBA (hERβ [1]): 21
O=c1c(-c2ccc(O)cc2)coc2cc(O)cc(O)c12 [Genisteine] | – | – | – | 10 | 10 | – | – | –
O=C(c1ccc(OCCN2CCCCC2)cc1)c1c(-c2ccc(O)cc2)sc2cc(O)ccc12 [Raloxifene] | – | 9 | – | – | 1.5 | – | – | –
